Measurements as given in paper PMC11850817 (Scientific Reports, 2025).

Columns and labels:
EBC-1 = test: MTT antiproliferative assay, EBC-1; type: cell-based, human; conditions: Homo sapiens, EBC-1, 72 h, read-out: IC50 EBC-1
AKT2 = AKT2 (Homo sapiens, UniProt P31751); test: Radiometric kinase assay; type: biochemical; conditions: read-out: Kinase inhibition (%) AKT2
ALK = ALK (Homo sapiens, UniProt Q9UM73); test: Radiometric kinase assay; type: biochemical; conditions: read-out: Kinase inhibition (%) ALK
Sequence of ALK (Q9UM73 19-1620): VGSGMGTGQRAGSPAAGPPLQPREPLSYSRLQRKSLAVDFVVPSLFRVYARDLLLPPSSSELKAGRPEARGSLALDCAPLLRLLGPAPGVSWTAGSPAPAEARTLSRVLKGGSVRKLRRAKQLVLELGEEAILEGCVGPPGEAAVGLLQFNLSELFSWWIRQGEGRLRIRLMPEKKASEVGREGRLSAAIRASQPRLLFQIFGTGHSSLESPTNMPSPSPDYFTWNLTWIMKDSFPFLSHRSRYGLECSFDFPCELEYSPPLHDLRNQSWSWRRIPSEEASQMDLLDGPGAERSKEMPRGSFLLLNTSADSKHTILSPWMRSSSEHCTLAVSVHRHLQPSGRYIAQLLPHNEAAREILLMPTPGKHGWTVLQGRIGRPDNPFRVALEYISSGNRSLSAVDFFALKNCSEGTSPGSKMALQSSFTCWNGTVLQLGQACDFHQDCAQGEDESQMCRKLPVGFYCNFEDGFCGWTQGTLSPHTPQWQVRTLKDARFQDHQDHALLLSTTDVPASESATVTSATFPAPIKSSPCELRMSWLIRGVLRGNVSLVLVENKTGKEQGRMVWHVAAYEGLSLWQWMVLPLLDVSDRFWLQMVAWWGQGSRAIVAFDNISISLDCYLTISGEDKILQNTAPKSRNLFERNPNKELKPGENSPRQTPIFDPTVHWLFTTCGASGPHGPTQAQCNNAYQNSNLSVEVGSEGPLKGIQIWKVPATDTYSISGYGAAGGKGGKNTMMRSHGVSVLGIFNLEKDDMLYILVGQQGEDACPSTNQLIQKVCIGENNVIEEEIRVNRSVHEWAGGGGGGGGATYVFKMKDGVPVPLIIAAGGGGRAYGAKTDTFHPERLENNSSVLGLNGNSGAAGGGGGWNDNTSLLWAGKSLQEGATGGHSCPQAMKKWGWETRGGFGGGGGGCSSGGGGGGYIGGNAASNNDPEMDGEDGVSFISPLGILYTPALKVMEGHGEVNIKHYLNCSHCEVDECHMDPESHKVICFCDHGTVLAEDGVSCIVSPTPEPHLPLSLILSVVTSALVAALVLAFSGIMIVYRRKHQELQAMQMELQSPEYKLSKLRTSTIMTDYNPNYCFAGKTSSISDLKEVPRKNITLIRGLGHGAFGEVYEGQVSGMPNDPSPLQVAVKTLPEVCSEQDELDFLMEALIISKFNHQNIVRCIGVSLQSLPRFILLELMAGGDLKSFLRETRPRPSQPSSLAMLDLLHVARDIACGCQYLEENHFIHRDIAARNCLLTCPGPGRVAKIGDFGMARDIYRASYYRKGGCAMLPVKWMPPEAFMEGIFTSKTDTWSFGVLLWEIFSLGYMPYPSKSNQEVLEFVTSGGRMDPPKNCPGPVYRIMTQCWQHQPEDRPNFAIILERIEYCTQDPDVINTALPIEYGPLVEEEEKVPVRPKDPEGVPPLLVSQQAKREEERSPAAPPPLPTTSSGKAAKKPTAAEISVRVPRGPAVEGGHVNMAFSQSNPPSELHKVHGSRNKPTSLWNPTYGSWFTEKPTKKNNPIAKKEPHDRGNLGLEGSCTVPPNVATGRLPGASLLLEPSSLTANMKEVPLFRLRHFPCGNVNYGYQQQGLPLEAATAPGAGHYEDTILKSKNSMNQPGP

AsPC-1 = test: MTT antiproliferative assay, AsPC-1; type: cell-based, human; conditions: Homo sapiens, ASPC1, 72 h, read-out: IC50 AsPC-1
CDK2/cyclin A = CDK2/cyclin A (Homo sapiens, UniProt P24941); test: Radiometric kinase assay; type: biochemical; conditions: read-out: Kinase inhibition (%) CDK2/cyclin A
AXL = biological target: T1, AXL (Homo sapiens, UniProt P30530); test: Radiometric kinase assay; type: biochemical; conditions: read-out: Kinase inhibition (%) AXL
T1 sequence (P30530 26-894): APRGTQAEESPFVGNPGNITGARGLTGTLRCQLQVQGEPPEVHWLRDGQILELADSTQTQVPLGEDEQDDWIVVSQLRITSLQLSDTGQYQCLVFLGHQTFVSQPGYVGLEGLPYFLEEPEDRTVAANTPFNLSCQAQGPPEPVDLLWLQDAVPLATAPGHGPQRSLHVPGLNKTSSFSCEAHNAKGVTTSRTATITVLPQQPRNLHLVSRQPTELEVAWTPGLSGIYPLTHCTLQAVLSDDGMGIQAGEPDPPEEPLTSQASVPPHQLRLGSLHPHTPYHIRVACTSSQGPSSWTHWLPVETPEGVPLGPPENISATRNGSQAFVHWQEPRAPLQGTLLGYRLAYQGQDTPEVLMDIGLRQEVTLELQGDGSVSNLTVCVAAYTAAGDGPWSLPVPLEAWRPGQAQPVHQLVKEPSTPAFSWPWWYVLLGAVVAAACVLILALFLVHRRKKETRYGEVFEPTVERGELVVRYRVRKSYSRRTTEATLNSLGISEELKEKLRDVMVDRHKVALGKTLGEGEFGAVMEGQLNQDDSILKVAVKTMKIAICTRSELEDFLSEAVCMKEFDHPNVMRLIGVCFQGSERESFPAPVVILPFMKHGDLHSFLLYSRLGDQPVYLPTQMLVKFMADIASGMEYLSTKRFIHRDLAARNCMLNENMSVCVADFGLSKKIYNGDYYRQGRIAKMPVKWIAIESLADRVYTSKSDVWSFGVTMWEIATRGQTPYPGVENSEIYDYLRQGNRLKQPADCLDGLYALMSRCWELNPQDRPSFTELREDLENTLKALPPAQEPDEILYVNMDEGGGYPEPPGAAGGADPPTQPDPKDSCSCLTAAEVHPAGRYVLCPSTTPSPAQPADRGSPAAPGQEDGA

IGF1R = IGF1R (Homo sapiens, UniProt P08069); test: Radiometric kinase assay; type: biochemical; conditions: read-out: Kinase inhibition (%) IGF1R
Sequence of IGF1R (P08069 31-1367): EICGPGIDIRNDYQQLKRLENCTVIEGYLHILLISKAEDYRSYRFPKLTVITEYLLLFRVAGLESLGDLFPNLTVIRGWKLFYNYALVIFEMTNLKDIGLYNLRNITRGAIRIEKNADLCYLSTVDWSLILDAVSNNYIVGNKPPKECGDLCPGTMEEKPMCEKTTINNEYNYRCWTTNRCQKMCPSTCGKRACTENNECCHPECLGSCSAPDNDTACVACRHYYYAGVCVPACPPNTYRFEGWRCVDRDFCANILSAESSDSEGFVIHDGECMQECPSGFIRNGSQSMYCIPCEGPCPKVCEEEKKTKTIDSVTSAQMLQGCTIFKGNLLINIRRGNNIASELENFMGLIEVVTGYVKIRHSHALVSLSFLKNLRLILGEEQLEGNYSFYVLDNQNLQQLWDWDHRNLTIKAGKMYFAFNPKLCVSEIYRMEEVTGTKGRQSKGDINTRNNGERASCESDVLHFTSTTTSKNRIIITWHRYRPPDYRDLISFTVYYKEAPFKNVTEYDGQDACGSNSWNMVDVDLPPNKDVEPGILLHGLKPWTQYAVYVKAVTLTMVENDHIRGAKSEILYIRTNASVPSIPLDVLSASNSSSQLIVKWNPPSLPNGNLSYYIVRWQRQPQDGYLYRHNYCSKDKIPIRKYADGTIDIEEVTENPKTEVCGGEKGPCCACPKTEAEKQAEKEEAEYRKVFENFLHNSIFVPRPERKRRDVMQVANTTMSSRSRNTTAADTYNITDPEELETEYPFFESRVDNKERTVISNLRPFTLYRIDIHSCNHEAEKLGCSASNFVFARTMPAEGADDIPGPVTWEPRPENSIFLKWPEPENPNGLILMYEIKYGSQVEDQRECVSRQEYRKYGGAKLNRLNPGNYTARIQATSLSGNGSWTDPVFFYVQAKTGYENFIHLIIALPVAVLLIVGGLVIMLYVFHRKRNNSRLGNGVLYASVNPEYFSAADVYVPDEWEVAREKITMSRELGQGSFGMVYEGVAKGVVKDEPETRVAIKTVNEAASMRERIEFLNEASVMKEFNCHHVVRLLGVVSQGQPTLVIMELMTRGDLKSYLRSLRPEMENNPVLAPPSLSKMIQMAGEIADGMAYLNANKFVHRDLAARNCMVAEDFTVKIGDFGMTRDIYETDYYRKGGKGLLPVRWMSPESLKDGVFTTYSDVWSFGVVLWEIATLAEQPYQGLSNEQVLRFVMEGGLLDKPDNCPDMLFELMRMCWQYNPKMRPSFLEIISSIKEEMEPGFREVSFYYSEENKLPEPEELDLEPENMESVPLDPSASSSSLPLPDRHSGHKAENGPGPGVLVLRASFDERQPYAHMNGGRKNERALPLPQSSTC

ABL1 = ABL1 (Homo sapiens, UniProt P00519); test: Radiometric kinase assay; type: biochemical; conditions: read-out: Kinase inhibition (%) ABL1
Sequence of ABL1 (P00519 whole entry): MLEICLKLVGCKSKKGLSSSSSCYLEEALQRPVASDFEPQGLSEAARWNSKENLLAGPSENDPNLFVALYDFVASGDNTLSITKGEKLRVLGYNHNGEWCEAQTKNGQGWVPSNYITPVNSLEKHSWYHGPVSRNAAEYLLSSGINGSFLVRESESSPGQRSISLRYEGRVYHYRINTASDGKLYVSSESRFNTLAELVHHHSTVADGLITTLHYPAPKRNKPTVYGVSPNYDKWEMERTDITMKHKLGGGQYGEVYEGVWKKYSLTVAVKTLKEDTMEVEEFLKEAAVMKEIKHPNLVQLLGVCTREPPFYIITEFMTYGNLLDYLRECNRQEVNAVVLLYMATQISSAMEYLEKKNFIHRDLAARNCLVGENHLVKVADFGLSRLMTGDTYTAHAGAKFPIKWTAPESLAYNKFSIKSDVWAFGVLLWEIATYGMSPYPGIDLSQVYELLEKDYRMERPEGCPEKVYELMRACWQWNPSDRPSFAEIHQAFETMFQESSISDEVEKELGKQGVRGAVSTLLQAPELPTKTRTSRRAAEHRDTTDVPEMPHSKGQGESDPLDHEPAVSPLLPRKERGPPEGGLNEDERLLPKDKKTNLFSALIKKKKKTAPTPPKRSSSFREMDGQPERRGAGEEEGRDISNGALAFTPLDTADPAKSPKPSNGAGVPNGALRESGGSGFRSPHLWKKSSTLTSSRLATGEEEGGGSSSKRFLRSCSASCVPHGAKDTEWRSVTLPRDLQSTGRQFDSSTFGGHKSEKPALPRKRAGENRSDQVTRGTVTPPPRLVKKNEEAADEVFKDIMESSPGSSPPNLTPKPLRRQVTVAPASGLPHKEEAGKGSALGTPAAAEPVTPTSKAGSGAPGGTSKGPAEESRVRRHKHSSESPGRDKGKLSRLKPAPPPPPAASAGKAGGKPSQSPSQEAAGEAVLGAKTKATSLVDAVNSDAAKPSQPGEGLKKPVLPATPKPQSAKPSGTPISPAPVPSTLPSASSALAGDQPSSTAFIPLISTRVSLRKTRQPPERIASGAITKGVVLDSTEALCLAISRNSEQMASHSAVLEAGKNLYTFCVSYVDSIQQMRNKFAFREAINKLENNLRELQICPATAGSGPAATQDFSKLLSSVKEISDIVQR

Sequence of AKT2 (P31751 whole entry): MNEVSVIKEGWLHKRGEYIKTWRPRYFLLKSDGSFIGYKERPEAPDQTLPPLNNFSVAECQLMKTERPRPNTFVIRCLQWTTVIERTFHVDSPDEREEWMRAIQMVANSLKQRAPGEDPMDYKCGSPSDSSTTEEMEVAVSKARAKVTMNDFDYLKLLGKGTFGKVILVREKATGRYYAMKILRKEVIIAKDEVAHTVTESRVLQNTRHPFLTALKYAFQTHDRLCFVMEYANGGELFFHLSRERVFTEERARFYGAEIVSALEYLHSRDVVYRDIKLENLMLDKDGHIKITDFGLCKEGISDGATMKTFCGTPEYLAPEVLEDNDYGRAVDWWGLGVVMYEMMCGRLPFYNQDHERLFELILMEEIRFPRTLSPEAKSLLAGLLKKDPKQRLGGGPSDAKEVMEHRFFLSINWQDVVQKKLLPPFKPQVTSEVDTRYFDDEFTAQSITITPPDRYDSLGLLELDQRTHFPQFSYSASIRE

- inhibition at 10 µM (AKT2): -7%
- inhibition at 10 µM (ALK): 15%
- IC50 (AsPC-1): 1100 ± 200 nM
- inhibition at 10 µM (CDK2/cyclin A): 9%
- inhibition at 10 µM (AXL): 5%
- inhibition at 10 µM (IGF1R): -11%
- inhibition at 10 µM (ABL1): 13%
SMILES: O=C1C=C(Nc2ccc(OCc3cn(Cc4ccc(Cl)c(Cl)c4)nn3)cc2)C(=O)c2ccccc21 [Compound 4e, 2-((4-((1-(3,4-Dichlorobenzyl)−1H-1,2,3-triazol-4-yl)methoxy)phenyl)amino) naphthalene-1,4-dione]
- IC50 (EBC-1): 300 ± 100 nM
